Here are results for two compounds from patent EP2201949A1 (World Trade Import-Export, WTIE A.G., priority 2007, dated 2009).

One data set concerns gout arthritis. It is filed as in vivo, female Wistar rats. The following applies: for Global anti-inflammatory and analgesic activity expressed in CT AUC: through 5 hours of assessment; for effect of used dose on walking capability / relaxation of the animals: rat, in vivo. The source says:
PIFIR experimental model is a preclinical model wherein gout arthritis is possible to be determined in a rodent and the anti-inflammatory and analgesic efficacy of several drugs in animals with this alteration is compared. This experimental model has some important advantages regarding other preclinical methodologies: a) an alteration which clinically affects to humans is established in the rodent: gout type arthritis; b) temporary course of anti-inflammatory and analgesic effect may be determined along […] in the same experimental subject, without producing rodent conditioning factor or learning, being this a significant disadvantage in other experimental models; c) less test drug is consumed compared with other experimental models; d) anti-inflammatory and analgesic effect assessment is performed by computer and not depending on sometimes subjective observations.
Experiments were performed by using female Wistar rats having a weight of about 180 to 200 g. Animals were kept in a room with alternate light/darkness cycles. Food was withdrawn from rats twelve hours before experimentation, with water ad-libitum. All experiments were carried out during light time, the animals being used only once.
Animals were anesthesized in a glass desiccator saturated with […]. Gout arthritis was induced by applying a 0.05 ml intra-articular uric acid injection suspended in mineral oil in the right anterior limb, exactly on the femoral-tibio-rotular joint. A 1 ml glass syringe was used for intra-articular injection with a No. 22 4 mm long needle. An electrode was fixed immediately later in every anterior leg between the plantar calluses. Rats were left to recover from anesthesia and they were enclosed in a 30 cm diameter stainless steel rotary cylinder. Cylinder was rotated at 4 rpm, forcing to the rats to walk during 2 min every half hour, during 5 hours after total dysfunction.
Contact time was the measured variable at every anterior leg from the rats in the cylinder. When electrode is in contact with the cylinder a circuit is closed and the contact time ratio between injured to uninjured legs was registered in a computer.
Temporary courses for every treatment were determined during 5 continuous hours, using a "n" of 6 rats per treatment.

The conditions of data set [1]: cited from earlier work.
[2] abbreviates: each compound 177.8 mg/kg, alone or combined.
The mark [3] stands for this setting: after being orally administered.

Molecules are shown by their SMILES.

As for `COc1ccccc1OCC(O)COC(N)=O` (stereo not drawn) [Methocarbamol], the “Global anti-inflammatory and analgesic activity expressed in CT AUC” value with gout arthritis (setting [2]) amounted to 48.8 ± 21.0 ua. Further, the “effect of used dose on walking capability / relaxation of the animals” value in the data set with gout arthritis is given as “slight relaxation effect”. Moreover, in data set [1] (setting [3]), the “beginning of pharmacological action” value was at most 30 minutes and the “total therapeutic action duration” value is “about 24 hours”. The half-life entry in data set [1] (in vivo) was “about 14 hours”.

For the compound `C[C@H]1C[C@H]2[C@@H]3CCC4=CC(=O)C=C[C@]4(C)[C@@]3(F)[C@@H](O)C[C@]2(C)[C@@]1(O)C(=O)CO` [Betamethasone], the “Global anti-inflammatory and analgesic activity expressed in CT AUC” value in the data set with gout arthritis (setting [2]) is listed as 31.6 ± 10.8 ua. Besides, the “time of maximum effect after delivery” value in the data set on gout arthritis (each compound 177.8 mg/kg, single dose, alone or combined, CT over 5 hours) is 4.5 h. In addition, the “Maximum effect (anti-inflammatory and analgesic effect)” value with gout arthritis (each compound 177.8 mg/kg, single dose, alone or combined, temporary course (CT) over 5 hours, n = 6 rats) amounted to 24.0 ± 11.9%. For the same compound, the “effect of used dose on walking capability / relaxation of the animals” value with gout arthritis is given as “did not affect the walking rat capability”.
